Data reported in PubChem BioAssay (NCI).
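A five-concentration, 48-hour dose response in 96-well plates underlies each endpoint, interpolated linearly between surrounding concentrations. GI50 marks 50% less growth. TGI marks complete inhibition of growth.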

Columns and labels:
Experiment in all cases: NCI anticancer screen, dose series, 48 h
SNB-75 CNS = test system: SNB-75 CNS
MDA-MB-231 breast = test system: MDA-MB-231 breast
A498 renal = test system: A498 renal
UACC-62 melanoma = test system: UACC-62 melanoma
OVCAR-4 ovarian = test system: OVCAR-4 ovarian
A549 NSCLC = test system: A549 NSCLC
NCI-H23 lung = test system: NCI-H23 lung
HT29 colon = test system: HT29 colon
SF-539 CNS = test system: SF-539 CNS
UO-31 renal = test system: UO-31 renal
SW-620 colon = test system: SW-620 colon
HCT-116 colon = test system: HCT-116 colon
BT-549 breast = test system: BT-549 breast
T-47D breast = test system: T-47D breast
HCC-2998 colon = test system: HCC-2998 colon
SK-MEL-2 melanoma = test system: SK-MEL-2 melanoma
NCI/ADR-RES ovarian = test system: NCI/ADR-RES ovarian
HL-60(TB) leukemia = test system: HL-60(TB) leukemia
OVCAR-5 ovarian = test system: OVCAR-5 ovarian
SK-OV-3 ovarian = test system: SK-OV-3 ovarian
786-0 renal = test system: 786-0 renal
RPMI-8226 leukemia = test system: RPMI-8226 leukemia
COLO 205 colon = test system: COLO 205 colon
EKVX NSCLC = test system: EKVX NSCLC
HS 578T breast = test system: HS 578T breast
MCF7 breast = test system: MCF7 breast
CAKI-1 renal = test system: CAKI-1 renal
U251 CNS = test system: U251 CNS
SF-268 CNS = test system: SF-268 CNS
SNB-19 CNS = test system: SNB-19 CNS
KM12 colon = test system: KM12 colon
ACHN renal = test system: ACHN renal
MOLT-4 leukemia = test system: MOLT-4 leukemia
SK-MEL-5 melanoma = test system: SK-MEL-5 melanoma
SF-295 CNS = test system: SF-295 CNS
K-562 leukemia = test system: K-562 leukemia
SK-MEL-28 melanoma = test system: SK-MEL-28 melanoma
MALME-3M melanoma = test system: MALME-3M melanoma
OVCAR-8 ovarian = test system: OVCAR-8 ovarian
NCI-H522 lung = test system: NCI-H522 lung
IGROV1 ovarian = test system: IGROV1 ovarian
RXF 393 renal = test system: RXF 393 renal
HOP-62 NSCLC = test system: HOP-62 NSCLC
M14 melanoma = test system: M14 melanoma
SN12C renal = test system: SN12C renal
NCI-H460 lung = test system: NCI-H460 lung
LOX IMVI melanoma = test system: LOX IMVI melanoma
DU-145 prostate = test system: DU-145 prostate
CCRF-CEM leukemia = test system: CCRF-CEM leukemia
HCT-15 colon = test system: HCT-15 colon
TK-10 renal = test system: TK-10 renal
UACC-257 melanoma = test system: UACC-257 melanoma
OVCAR-3 ovarian = test system: OVCAR-3 ovarian
MDA-MB-435 = test system: MDA-MB-435
SR leukemia = test system: SR leukemia
PC-3 prostate = test system: PC-3 prostate
NCI-H226 lung = test system: NCI-H226 lung
HOP-92 NSCLC = test system: HOP-92 NSCLC

## COc1ccc(C(C#N)=C2C=CC(=NO)C=C2)cc1
SNB-75 CNS
  GI50: 5.3 µM
  TGI: 18.9 µM
MDA-MB-231 breast
  GI50: 12.6 µM
  TGI: 35.3 µM
A498 renal
  GI50: 6.39 µM
  TGI: 25.4 µM
UACC-62 melanoma
  GI50: 8.34 µM
  TGI: 21.9 µM
OVCAR-4 ovarian
  GI50: 5.85 µM
  TGI: 19.6 µM
A549 NSCLC
  GI50: 16.5 µM
  TGI: 39.8 µM
NCI-H23 lung
  GI50: 12.8 µM
  TGI: 26.3 µM
HT29 colon
  GI50: 3.59 µM
  TGI: 12.5 µM
SF-539 CNS
  GI50: 3.79 µM
  TGI: 13.8 µM
UO-31 renal
  GI50: 4.23 µM
  TGI: 14.6 µM
SW-620 colon
  GI50: 2.09 µM
  TGI: 4.39 µM
HCT-116 colon
  GI50: 2.27 µM
  TGI: 5.55 µM
BT-549 breast
  GI50: 14.4 µM
  TGI: 29 µM
T-47D breast
  GI50: 1.76 µM
  TGI: 5.36 µM
HCC-2998 colon
  GI50: 16.1 µM
  TGI: 29.7 µM
SK-MEL-2 melanoma
  GI50: 2.59 µM
  TGI: 6.18 µM
NCI/ADR-RES ovarian
  GI50: 3.38 µM
  TGI: 13.3 µM
HL-60(TB) leukemia
  GI50: 3.08 µM
  TGI: 57.5 µM
OVCAR-5 ovarian
  GI50: 19.5 µM
  TGI: 34.3 µM
SK-OV-3 ovarian
  GI50: 29.6 µM
  TGI: 67.5 µM
786-0 renal
  GI50: 4.95 µM
  TGI: 15.3 µM
RPMI-8226 leukemia
  GI50: 3.2 µM
  TGI: 17.9 µM
COLO 205 colon
  GI50: 15.3 µM
  TGI: 30 µM
EKVX NSCLC
  GI50: 17.6 µM
  TGI: 32.7 µM
HS 578T breast
  GI50: 2.9 µM
  TGI: 20.3 µM
MCF7 breast
  GI50: 2.88 µM
  TGI: 13.8 µM
CAKI-1 renal
  GI50: 4.88 µM
  TGI: 15.1 µM
U251 CNS
  GI50: 6.46 µM
  TGI: 19.4 µM
SF-268 CNS
  GI50: 3.81 µM
  TGI: 14.2 µM
SNB-19 CNS
  GI50: 16.1 µM
  TGI: 32.1 µM
KM12 colon
  GI50: 1.79 µM
  TGI: 4.04 µM
ACHN renal
  GI50: 8.63 µM
  TGI: 21.1 µM
MOLT-4 leukemia
  GI50: 4.58 µM
  TGI: > 100 µM
SK-MEL-5 melanoma
  GI50: 4.34 µM
  TGI: 17.2 µM
SF-295 CNS
  GI50: 4.8 µM
  TGI: 17.1 µM
K-562 leukemia
  GI50: 7.26 µM
  TGI: > 100 µM
SK-MEL-28 melanoma
  GI50: 28.7 µM
  TGI: 86.7 µM
MALME-3M melanoma
  GI50: 12.4 µM
  TGI: 27.5 µM
OVCAR-8 ovarian
  GI50: 10.2 µM
  TGI: 22.9 µM
NCI-H522 lung
  GI50: 1.23 µM
  TGI: 3.41 µM
IGROV1 ovarian
  GI50: 2.8 µM
  TGI: 8 µM
RXF 393 renal
  GI50: 7.8 µM
  TGI: 20.5 µM
HOP-62 NSCLC
  GI50: 2.47 µM
  TGI: 6.5 µM
M14 melanoma
  GI50: 6.09 µM
  TGI: 19.6 µM
SN12C renal
  GI50: 12.5 µM
  TGI: 27.6 µM
NCI-H460 lung
  GI50: 3.17 µM
  TGI: 12 µM
LOX IMVI melanoma
  GI50: 1.91 µM
  TGI: 4.5 µM
DU-145 prostate
  GI50: 1.92 µM
  TGI: 4.42 µM
CCRF-CEM leukemia
  GI50: 2.76 µM
  TGI: > 100 µM
HCT-15 colon
  GI50: 11.7 µM
  TGI: 26.1 µM
TK-10 renal
  GI50: 3.87 µM
  TGI: 8.72 µM
UACC-257 melanoma
  GI50: 10.5 µM
  TGI: 30.6 µM
OVCAR-3 ovarian
  GI50: 4.31 µM
  TGI: 13.4 µM
MDA-MB-435
  GI50: 2.23 µM
  TGI: 5.8 µM
SR leukemia
  GI50: 3.53 µM
  TGI: > 100 µM
PC-3 prostate
  GI50: 3.74 µM
  TGI: 17.1 µM
NCI-H226 lung
  GI50: 3.97 µM
  TGI: 15.2 µM

## CCCCCCCN(CCCCCCC)C(=N)c1ccnc2ccccc12
SNB-75 CNS
  GI50: 1.2 µM
  TGI: 2.77 µM
MDA-MB-231 breast
  GI50: 1.62 µM
  TGI: 3.58 µM
UACC-62 melanoma
  GI50: 1.52 µM
  TGI: 3.05 µM
OVCAR-4 ovarian
  GI50: 1.35 µM
  TGI: 3.05 µM
A549 NSCLC
  GI50: 1.77 µM
  TGI: 3.41 µM
NCI-H23 lung
  GI50: 1.54 µM
  TGI: 3.08 µM
HT29 colon
  GI50: 1.24 µM
  TGI: 2.87 µM
SF-539 CNS
  GI50: 1.9 µM
  TGI: 3.58 µM
UO-31 renal
  GI50: 1.09 µM
  TGI: 2.41 µM
SW-620 colon
  GI50: 1.28 µM
  TGI: 2.91 µM
BT-549 breast
  GI50: 1.36 µM
  TGI: 2.74 µM
T-47D breast
  GI50: 1.78 µM
  TGI: 4.3 µM
HCC-2998 colon
  GI50: 1.42 µM
  TGI: 2.77 µM
SK-MEL-2 melanoma
  GI50: 1.71 µM
  TGI: 3.35 µM
NCI/ADR-RES ovarian
  GI50: 1.54 µM
  TGI: 2.96 µM
HOP-92 NSCLC
  GI50: 1.33 µM
  TGI: 3 µM
HL-60(TB) leukemia
  GI50: 1.75 µM
  TGI: 3.7 µM
OVCAR-5 ovarian
  GI50: 1.8 µM
  TGI: 3.6 µM
SK-OV-3 ovarian
  GI50: 1.64 µM
  TGI: 3.14 µM
786-0 renal
  GI50: 1.55 µM
  TGI: 2.97 µM
RPMI-8226 leukemia
  GI50: 1.65 µM
  TGI: 4.21 µM
COLO 205 colon
  GI50: 1.58 µM
  TGI: 3.51 µM
EKVX NSCLC
  GI50: 1.59 µM
  TGI: 3.15 µM
HS 578T breast
  GI50: 1.64 µM
  TGI: 4.36 µM
MCF7 breast
  GI50: 1.71 µM
  TGI: 3.32 µM
CAKI-1 renal
  GI50: 1.32 µM
  TGI: 2.68 µM
U251 CNS
  GI50: 1.66 µM
  TGI: 3.11 µM
SF-268 CNS
  GI50: 1.48 µM
  TGI: 3.03 µM
SNB-19 CNS
  GI50: 1.79 µM
  TGI: 3.68 µM
KM12 colon
  GI50: 1.82 µM
  TGI: 3.49 µM
ACHN renal
  GI50: 1.62 µM
  TGI: 3.07 µM
MOLT-4 leukemia
  GI50: 1.7 µM
  TGI: 4.4 µM
SK-MEL-5 melanoma
  GI50: 1.51 µM
  TGI: 2.96 µM
SF-295 CNS
  GI50: 1.69 µM
  TGI: 3.45 µM
K-562 leukemia
  GI50: 1.27 µM
  TGI: 3.48 µM
SK-MEL-28 melanoma
  GI50: 1.68 µM
  TGI: 3.21 µM
MALME-3M melanoma
  GI50: 1.62 µM
  TGI: 3.37 µM
OVCAR-8 ovarian
  GI50: 1.63 µM
  TGI: 3.48 µM
NCI-H522 lung
  GI50: 1.65 µM
  TGI: 3.41 µM
IGROV1 ovarian
  GI50: 1.6 µM
  TGI: 3.37 µM
RXF 393 renal
  GI50: 1.44 µM
  TGI: 2.99 µM
HOP-62 NSCLC
  GI50: 1.16 µM
  TGI: 2.65 µM
M14 melanoma
  GI50: 1.33 µM
  TGI: 2.76 µM
SN12C renal
  GI50: 1.67 µM
  TGI: 3.49 µM
NCI-H460 lung
  GI50: 1.69 µM
  TGI: 3.27 µM
LOX IMVI melanoma
  GI50: 1.42 µM
  TGI: 2.82 µM
DU-145 prostate
  GI50: 1.6 µM
  TGI: 3.04 µM
CCRF-CEM leukemia
  GI50: 2.14 µM
  TGI: 5.27 µM
HCT-15 colon
  GI50: 1.59 µM
  TGI: 3.04 µM
TK-10 renal
  GI50: 1.51 µM
  TGI: 2.97 µM
UACC-257 melanoma
  GI50: 1.72 µM
  TGI: 3.5 µM
OVCAR-3 ovarian
  GI50: 1.45 µM
  TGI: 2.84 µM
MDA-MB-435
  GI50: 1.58 µM
  TGI: 3.24 µM
SR leukemia
  GI50: 1.01 µM
  TGI: 2.96 µM
PC-3 prostate
  GI50: 1.39 µM
  TGI: 2.96 µM
NCI-H226 lung
  GI50: 1.88 µM
  TGI: 3.78 µM
